US9486461B2, “Methods and compositions for inducing apoptosis by stimulating ER stress” (UNIVERSITY OF SOUTHERN CALIFORNIA, priority 2007, dated 2016)
“Also recorded” adds a separate entry of the source.

Legend:
[1] = system: U87 glioblastoma tumors; test: TUNEL assay of xenograft tumor tissue
[2] = biological target: T1, purified COX-2 protein (Homo sapiens, UniProt P35354); test: COX-2 inhibition in vitro with purified COX-2 protein; type: biochemical
T1 sequence (P35354 18-604): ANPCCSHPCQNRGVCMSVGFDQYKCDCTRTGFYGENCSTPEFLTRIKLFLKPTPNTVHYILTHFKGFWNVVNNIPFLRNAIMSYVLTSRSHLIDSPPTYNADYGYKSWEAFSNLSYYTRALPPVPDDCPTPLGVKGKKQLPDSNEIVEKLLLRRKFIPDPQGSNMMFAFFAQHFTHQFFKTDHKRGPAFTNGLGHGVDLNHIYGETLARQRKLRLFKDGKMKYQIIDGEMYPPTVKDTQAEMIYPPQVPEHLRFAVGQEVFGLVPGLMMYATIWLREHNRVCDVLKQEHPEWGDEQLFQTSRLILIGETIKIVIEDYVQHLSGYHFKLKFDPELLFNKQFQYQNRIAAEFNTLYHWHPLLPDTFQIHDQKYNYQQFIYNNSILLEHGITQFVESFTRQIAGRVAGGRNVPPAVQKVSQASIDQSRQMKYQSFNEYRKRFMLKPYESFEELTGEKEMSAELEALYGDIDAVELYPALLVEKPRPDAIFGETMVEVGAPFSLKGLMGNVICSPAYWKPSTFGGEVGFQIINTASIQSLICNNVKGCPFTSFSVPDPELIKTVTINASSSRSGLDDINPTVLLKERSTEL
Protocol: Bortezomib was obtained from the pharmacy as 3.5 mg Velcade suspended in 3.5 mL saline (Millennium Pharmaceuticals).

[3] = system: polyubiquitinated proteins in U251 cells; test: Western blot of polyubiquitinated proteins, U251; type: cell-based, human; settings: U251, increasing concentrations, 24 hours
Protocol: Total cell lysates were analyzed by Western blot with specific antibodies to ubiquitin, GRP78, CHOP, and caspase 4. Actin was used as a loading control. […] Note that in the caspase 4 blots several non-specific background bands were observed (consistent with similar observations in the literature); the specific bands were identified with the use of various controls (not shown) and comparison to the literature.
Total cell lysates were prepared and analyzed by Western blot analysis as described earlier (19). Immunohistochemical analysis of protein expression in tumor tissues was performed with the use of the Vectastain avidin-biotin complex method kit (Vector Laboratories) as described previously (32). The primary antibodies were purchased from Cell Signaling Technology or Santa Cruz Biotechnology, Inc. and used according to the manufacturers' recommendations. All immunoblots and stainings were repeated at least once to confirm the results.

[4] = system: U251 glioblastoma cells; test: Colony formation assay after siRNA transfection, U251; type: cell-based, human; settings: 48 h
Protocol: U251 glioblastoma cells were transiently transfected with si-RNA directed at GRP78 (si-GRP78) or caspase 4 (si-Casp 4). As a control, an siRNA targeted at green fluorescent protein (si-GFP) was used. […] After 48 hours of drug treatment, the drugs were removed and the fraction of surviving cells was determined by colony forming assays. Shown is the percentage of surviving cells (where the number of colonies under non-drug treated conditions was set to 100%). […] (B) In order to verify the effectiveness of the si-RNAs, Western blot analysis of the target proteins was performed. Note that the knock-down of GRP78 leads to increased levels of CHOP protein, as expected from the model of ER stress, where GRP78 signaling is upstream of CHOP.
U251 cells were transiently transfected with si-RNA directed at GRP78 (si-GRP78). As a control, an siRNA targeted at green fluorescent protein (si-GFP) was used. […] In parallel, transfected control cultures received no drug treatment or treatment with solvent (DMSO) alone. After 48 hours, the drugs were removed and the fraction of surviving cells was determined by colony forming assays over the course of 12-14 days. […]
Twenty-four hours after transfection with small interfering RNA (siRNA), the cells were seeded into six-well plates at 200 cells per well. […] Colonies were visualized by staining for 4 h with 1% methylene blue (in methanol) and then counted. […]

[5] = system: U87 glioblastoma tumors; test: Tumor growth in xenograft nude mouse model; type: in vivo, nude mice; settings: daily chow for DMC, 40 mg/kg for rofecoxib, n=5
Protocol: Once palpable tumors had formed, the animals received daily chow supplemented with DMC, rofecoxib, or no drug. Tumor size was determined every three days. Shown is the average (mean±SD) tumor volume in each group (n=5). Asterisks (**): p<0.01 between control and DMC-treated animals on day 42.

For Cc1ccc(C)c(-c2cc(C(F)(F)F)nn2-c2ccc(S(N)(=O)=O)cc2)c1 [DMC, 4-[5-(2,5-dimethylphenyl)-3-(trifluoromethyl)-1H-pyrazol-1-yl]benzenesulfonamide], the “TUNEL staining of tumor tissue” value ([1]; U87MG xenograft, 1 mg/kg BZM and 7.5 mg/kg DMC individually or in combination, 50 h) was “nor did it substantially increase TUNEL staining”, the “apoptosis in the tumor tissue” value ([1]; U87 xenograft, short-term drug treatment) was “significantly increased apoptosis” and the COX-2-inhibitory activity [2] was “lacks the ability to inhibit COX-2; also recorded: lack thereof”. The “accumulation of polyubiquitinated proteins” value [3] was “did not cause substantial accumulation of polyubiquitinated proteins”, the “cell survival when GRP78 levels were reduced by siRNA (vs si-GFP)” value ([4]; U251, 40 μM Cxb or 30 μM DMC) was “less cell survival” and the “cell survival when caspase-4 expression was diminished by siRNA (vs si-GFP)” value ([4]; U251, 60 μM Cxb or 40 μM DMC) was “increased”. For the same compound, the “tumor growth on longer-term therapy” value [5] was “significantly reduced tumor growth”.
